The text below walks through data of PubChem BioAssay (NCI).

What all share (experiment): growth of human tumour cells (NCI), 48 h
In assay [1] the test system is DU-145 prostate.
The subject of assay [2] is IGROV1 ovarian.
The subject of assay [3] is NCI-H226 lung.
The test system of assay [4] is NCI/ADR-RES ovarian.
The test system of assay [5] is RPMI-8226 leukemia.
Assay [6] deals with SK-OV-3 ovarian.
Assay [7] has as its system T-47D breast.
In assay [8] the test system is UO-31 renal.
Assay [9] concerns HL-60(TB) leukemia.
Assay [10] has as its system SR leukemia.

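These data come from cells grown in 96-well plates and exposed to compound for 48 hours at five concentrations. Here, GI50 denotes the concentration required for 50% inhibition of growth. At the TGI there is no net growth.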

On to `Cn1cccc1-c1cc(-c2ccccc2)[nH]c(=O)c1C#N`, for which the GI50 in assay [1], in [2], in [3], in assay [4], in [5] and in [6] was > 100 µM in each case. The GI50 in assay [7] and in assay [8] was > 100 µM throughout. The TGI in assay [1], in assay [2], in assay [3], in [4], in assay [5] and in assay [6] was > 100 µM throughout. In addition, the TGI in assay [7] and in assay [8] was > 100 µM each time.
`CN(Cc1ccc(C(F)(F)F)cc1)CC(O)C(=O)Nc1ccc(Cl)cc1` (stereo unspecified): the GI50 in assay [1] is 1.38 µM; in assay [9], 1.37 µM; in [2], 1.46 µM; in [3], 1.83 µM; in [4], 1.58 µM; in [5], 1.02 µM. The results for the GI50 in [6], in assay [7] and in assay [8] were 1.48 µM, 1.38 µM and 1.29 µM, respectively. Also, the TGI was found to be 2.77 µM in assay [1]; 3.09 µM in assay [9]; 3.04 µM in assay [2]; 3.7 µM in [3]; 3.02 µM in assay [4]; 2.8 µM in assay [5]. Moreover, the TGI in assay [6] was determined as 2.96 µM; in assay [7], 2.87 µM; in assay [8] it was 2.65 µM.
`C1=C/COCc2cc(ccc2OCCN2CCCC2)Nc2nccc(n2)-c2ccc(o2)COC/1`: the GI50 in assay [1] is 1.57 µM; in [9], 0.729 µM; in assay [2], 0.626 µM; in assay [3], 1.74 µM; in assay [4] it was 2.9 µM; in [5] it was 2.29 µM. Further, the GI50 in assay [6] is 2.44 µM; in assay [7] it was 1.21 µM; in assay [8], 1.06 µM. In addition, the TGI was found to be 13.8 µM in [1]; 6.27 µM in assay [9]; 6.57 µM in assay [2]; 6.13 µM in assay [3]; 8.62 µM in assay [4]; 5.21 µM in assay [5]. Moreover, the TGI came out at 7.53 µM in assay [6], 7.33 µM in assay [7] and 7.06 µM in assay [8].
Regarding `CCOC(=O)c1c(C)n(Cc2ccc(Cl)cc2Cl)c2c1cc1oc(=O)c(=O)n3cnc2c13`, the GI50 was 17.3 µM in assay [1]; 5.43 µM in assay [9]; 17.8 µM in assay [2]; 19.7 µM in [3]; 6.32 µM in [5]; 23.5 µM in assay [6]. The GI50 in [10] was 1.09 µM; in assay [7], 12.8 µM; in assay [8], 16.1 µM. The TGI in [1] amounted to 32.9 µM; in [9], 28.2 µM; in assay [2], 34 µM; in assay [3], 39.5 µM; in [5], 21.8 µM; in [6] it was 38.3 µM. For the same molecule, the TGI in [10] is 5.85 µM; in [7] it was 27.7 µM; in assay [8] it was 31.8 µM.
As for `CNNC(=N\S(=O)(=O)c1cc(C)c(Cl)cc1SCc1ccccc1)/N=C/c1ccc([N+](=O)[O-])s1`, the GI50 was > 100 µM in assay [1]; > 100 µM in [9]; > 100 µM in assay [2]; > 100 µM in [4]; 0.422 µM in assay [5]; > 100 µM in [6]. In addition, the GI50 in assay [10] was 41.2 µM; in assay [7], > 100 µM; in assay [8], > 100 µM. In addition, the TGI is > 100 µM in [1]; > 100 µM in [9]; > 100 µM in assay [2]; > 100 µM in assay [4]; > 45.3 µM in assay [5]; > 100 µM in [6]. The TGI in assay [10], in assay [7] and in [8] was > 100 µM throughout.
Regarding `NCCCCC1NC(=O)C(CC(=O)O)NC(=O)CNC(=O)C(CCCN=C(N)N)NC(=O)C(N)CSSCC(C(=O)O)NC(=O)C(CC(=O)O)NC(=O)C2CCCN2C(=O)CNC1=O` (stereo unspecified), the GI50 in [1], in assay [2], in assay [3], in [4], in [6] and in assay [7] was > 100 µM in each case. Moreover, in assay [8], the GI50 was > 100 µM. The TGI in [1], in [2], in assay [3], in [4], in assay [6] and in [7] was > 100 µM throughout. Moreover, the TGI in [8] was > 100 µM.
Consider `CSc1ncc(Br)c(Sc2nc(N)nc3nc[nH]c23)n1`, for which the GI50 is 1.44 µM in assay [1]; 4.34 µM in assay [9]; 12.9 µM in [2]; 2.65 µM in assay [3]; 3.64 µM in assay [4]; 1.62 µM in assay [6]. For the same molecule, the results for the GI50 in assay [7] and in assay [8] were 1.95 µM and 1.94 µM, respectively. The TGI is 23.9 µM in assay [1]; 27.3 µM in assay [9]; 44.2 µM in assay [2]; 29.5 µM in assay [3]; > 100 µM in assay [4]; 10.3 µM in assay [6]. Further, the TGI was 21.2 µM in assay [7] and 11.2 µM in assay [8].
As to `CCOc1ccc2c(c1)C(=O)c1c-2n(CCCBr)c(=O)c2cc([N+](=O)[O-])ccc12`, the GI50 was 4.29 µM in assay [1]; 64.5 µM in assay [9]; 5.64 µM in assay [3]; 9.06 µM in assay [4]; 30.7 µM in assay [5]; 17.6 µM in [6]. Further, the GI50 in assay [10] was 0.554 µM; in [7], 0.55 µM; in assay [8] it was 2.9 µM. Moreover, the TGI in assay [1], in assay [9], in assay [3], in [4], in assay [5] and in assay [6] was > 100 µM in each case. Further, the TGI in assay [10] was > 100 µM; in [7], 9.12 µM; in [8], 13.6 µM.
